Experimental data: patent US20240400572A1, “COMPOUNDS AND METHODS FOR TREATING CANCERS THAT ARE MGMT DEFICIENT REGARDLESS OF MMR STATUS” (Yale University, priority 2021, published 2024)
“And” between values parts separate entries of the source, which are not always exact repeats. Equal values may be shown once. Read-outs that look alike come from different tables or passages of the source.

Test: Brain distribution study
Format: in vivo, male C57BL/6 mice
Description: Compound KL50 dosing solution: 3.39% DMSO+96.61% (10% HP-β-CD in saline) at 2 mg/mL; • 1) Weigh 17.39 mg of compound KL50 into a clean tube. • 2) Add 0.295 mL DMSO into the tube containing the compound. • 3) Vortex the tube for 3 min and sonicate it for 4 min. • 4) Add 8.400 mL 10% HP-β-CD in saline into the tube and vortex the tube for 3 min. Compound I-1 dosing solution: 3.39% DMSO+96.61% (10% HP-β-CD in saline) at 2 mg/mL; • 1) Weigh 16.86 mg Compound I-1 into a clean tube. • 2) Add 0.286 mL DMSO into the tube containing the compound. • 3) Vortex the tube for 3 min and sonicate it for 4 min. • 4) Add 8.144 mL 10% HP-β-CD in saline into the tube and vortex the tube for 3 min.
The in-vivo pharmacokinetic and brain distribution study was conducted under the following parameters. Twenty seven C57BL/6 male mice were purchased from Shanghai JiHui Laboratory Animal Co. LTD. Each mouse weighted from 16 g to 17 g. The mice were fasted overnight and fed post 4 hr sampling. Compound KL50 and Compound I-I were administered via oral gavage (PO) at a dose of 20 mg/kg (10 mL/kg). After dosing, sampling was completed at 0.083, 0.167, 0.333, 0.5, 0.75, 1, 2, 4 and 8 hr post dose, with three mice sacrificed at each time point.
Terminal bleeding for plasma and brain was completed at each time point. Approximately 110 μL blood per time point was collected into a K2EDTA tube via the facial vein. The blood sample was put on wet ice and centrifuged to obtain plasma sample (2000 g, 5 min under 4° C.) within 15 minutes. Plasma samples were acidified with 6 μL of formic acid for every 54 μL of plasma. After blood collection, a mid-line incision was made in the animal's scalp and the skin was retracted. The skull overlying the brain was removed. Then, the whole brain was collected, rinsed with cold saline, dried on filtrate paper, and weighed; and then snap frozen by placing the brain into dry-ice. Plasma samples were stored at approximately −70° C. until analysis. Brain tissue was homogenized with 3 volumes (v/w) of PBS (1% FA) and then analyzed with LC-MS/MS. The concentration of study drug was corrected with a dilution factor of four as following: Brain concentration=brain homogenate conc.×4, assuming 1 g wet brain tissue equals to 1 mL

[1] = PO 20 mg/kg, male C57BL/6 mice, 0.083 hr, 20 mg/kg
[2] = PO 20 mg/kg, male C57BL/6 mice, 0.167 hr, 20 mg/kg
[3] = PO 20 mg/kg, male C57BL/6 mice, 0.333 hr, 20 mg/kg
[4] = PO 20 mg/kg, male C57BL/6 mice, 0.5 hr, 20 mg/kg
[5] = PO 20 mg/kg, male C57BL/6 mice, 0.75 hr, 20 mg/kg
[6] = PO 20 mg/kg, male C57BL/6 mice, 1 hr, 20 mg/kg
[7] = PO 20 mg/kg, male C57BL/6 mice, 2 hr, 20 mg/kg
[8] = PO 20 mg/kg, male C57BL/6 mice, 4 hr
[9] = PO 20 mg/kg, male C57BL/6 mice, 8 hr
[10] = brain, PO 20 mg/kg, male C57BL/6 mice
[11] = mouse, brain, PO 20 mg/kg, male C57BL/6 mice

In the case of `CNC(=O)c1ncn2c(=O)n(CCF)nnc12` [Compound I-1, 3-(2-fluoroethyl)-N-methyl-4-oxo-3H,4H-imidazo[4,3-d][1,2,3,5]tetrazine-8-carboxamide], the “Brain Concentration/Plasma Concentration, Individuals” value [1] is reported as 0.310 and 0.329, the “brain Concentration, Individuals” value [1] is reported as 6300 ng/g and 6740 ng/g and the “Brain Concentration/Plasma Concentration, Individuals” value [2] is reported as 0.473 and 0.549. The “brain Concentration, Individuals” value [2] was 7100 ng/g and 9110 ng/g, the “Brain Concentration/Plasma Concentration, Individuals” value [3] was 0.606 and 0.651 and the “brain Concentration, Individuals” value [3] was 6850 ng/g and 8730 ng/g. The “Brain Concentration/Plasma Concentration, Individuals” value [4] was 0.677 and 0.522, the “brain Concentration, Individuals” value [4] was 4770 ng/g and 3750 ng/g and the “Brain Concentration/Plasma Concentration, Individuals” value [5] was 0.623 and 0.560. The “brain Concentration, Individuals” value [5] was 2500 ng/g and 1920 ng/g, the “Brain Concentration/Plasma Concentration, Individuals” value [6] was 0.626 and 0.527 and the “brain Concentration, Individuals” value [6] was 952 ng/g and 1280 ng/g. The “Brain Concentration/Plasma Concentration, Individuals” value [7] was 0.483 and 0.490, the “brain Concentration, Individuals” value [7] was 155 ng/g and 345 ng/g and 90.6 ng/g and the “brain Concentration, Individuals (below limit)” value [8] was “BQL (Below the quantifiable limit of 1.00 ng/mL or ng/g for Compound I-1 in mouse plasma and brain homogenate)”. The “brain Concentration, Mean (below limit)” value [8] was “BQL (Below the quantifiable limit of 1.00 ng/mL or ng/g for Compound I-1 in mouse plasma and brain homogenate)”, the “brain Concentration, Individuals (below limit)” value [9] was “BQL (Below the quantifiable limit of 1.00 ng/mL or ng/g for Compound I-1 in mouse plasma and brain homogenate)” and the “brain Concentration, Mean (below limit)” value [9] was “BQL (Below the quantifiable limit of 1.00 ng/mL or ng/g for Compound I-1 in mouse plasma and brain homogenate)”. For the same compound, the AUCINF [10] was 4849 ng·h/g, the AUClast [10] was 4749 ng·h/g and the concentration at 0.083 hr (male, C57BL/6, mouse, brain, po, 20 mg/kg, PO 20 mg/kg, male C57BL/6 mice, 0.083 hr, N=3, read-out: brain Concentration, Mean) was 6300 ng/g. For the same compound, the concentration at 0.083 hr (male, C57BL/6, mouse, brain, po, 20 mg/kg, PO 20 mg/kg, male C57BL/6 mice, 0.083 hr, read-out: brain Concentration, Individuals) was 5860 ng/g, the concentration at 0.167 hr (male, C57BL/6, mouse, brain, po, 20 mg/kg, PO 20 mg/kg, male C57BL/6 mice, 0.167 hr, N=3, read-out: brain Concentration, Mean) was 7210 ng/g and the concentration at 0.167 hr (male, C57BL/6, mouse, brain, po, 20 mg/kg, PO 20 mg/kg, male C57BL/6 mice, 0.167 hr, read-out: brain Concentration, Individuals) was 5420 ng/g. For the same compound, the concentration at 0.333 hr (male, C57BL/6, mouse, brain, po, 20 mg/kg, PO 20 mg/kg, male C57BL/6 mice, 0.333 hr, N=3, read-out: brain Concentration, Mean) was 6840 ng/g, the concentration at 0.333 hr (male, C57BL/6, mouse, brain, po, 20 mg/kg, PO 20 mg/kg, male C57BL/6 mice, 0.333 hr, read-out: brain Concentration, Individuals) was 4950 ng/g and the concentration at 0.5 hr (male, C57BL/6, mouse, brain, po, 20 mg/kg, PO 20 mg/kg, male C57BL/6 mice, 0.5 hr, N=3, read-out: brain Concentration, Mean) was 3940 ng/g. It also gave a concentration at 0.5 hr (male, C57BL/6, mouse, brain, po, 20 mg/kg, PO 20 mg/kg, male C57BL/6 mice, 0.5 hr, read-out: brain Concentration, Individuals) of 3310 ng/g, a concentration at 0.75 hr (male, C57BL/6, mouse, brain, po, 20 mg/kg, PO 20 mg/kg, male C57BL/6 mice, 0.75 hr, N=3, read-out: brain Concentration, Mean) of 2240 ng/g and a concentration at 0.75 hr (male, C57BL/6, mouse, brain, po, 20 mg/kg, PO 20 mg/kg, male C57BL/6 mice, 0.75 hr, read-out: brain Concentration, Individuals) of 2290 ng/g. It also gave a concentration at 1 hr (male, C57BL/6, mouse, brain, po, 20 mg/kg, PO 20 mg/kg, male C57BL/6 mice, 1 hr, N=3, read-out: brain Concentration, Mean) of 1120 ng/g, a concentration at 1 hr (male, C57BL/6, mouse, brain, po, 20 mg/kg, PO 20 mg/kg, male C57BL/6 mice, 1 hr, read-out: brain Concentration, Individuals) of 1140 ng/g and a concentration at 2 hr (male, C57BL/6, mouse, brain, po, 20 mg/kg, PO 20 mg/kg, male C57BL/6 mice, 2 hr, N=3, read-out: brain Concentration, Mean) of 197 ng/g. It also gave a Kp (male, C57BL/6, mouse, brain/plasma, po, 20 mg/kg, AUCbrain/AUCplasma, PO 20 mg/kg, male C57BL/6 mice, heading: AUCbrain/AUCplasma) of 49.1%, a Kp at 0.083 hr (male, C57BL/6, mouse, brain/plasma, po, 20 mg/kg, PO 20 mg/kg, male C57BL/6 mice, 0.083 hr, N=3, read-out: Brain Concentration/Plasma Concentration, Mean) of 0.305 and a Kp at 0.083 hr (male, C57BL/6, mouse, brain/plasma, po, 20 mg/kg, PO 20 mg/kg, male C57BL/6 mice, 0.083 hr, read-out: Brain Concentration/Plasma Concentration, Individuals) of 0.276. It also gave a Kp at 0.167 hr (male, C57BL/6, mouse, brain/plasma, po, 20 mg/kg, PO 20 mg/kg, male C57BL/6 mice, 0.167 hr, N=3, read-out: Brain Concentration/Plasma Concentration, Mean) of 0.501, a Kp at 0.167 hr (male, C57BL/6, mouse, brain/plasma, po, 20 mg/kg, PO 20 mg/kg, male C57BL/6 mice, 0.167 hr, read-out: Brain Concentration/Plasma Concentration, Individuals) of 0.48 and a Kp at 0.333 hr (male, C57BL/6, mouse, brain/plasma, po, 20 mg/kg, PO 20 mg/kg, male C57BL/6 mice, 0.333 hr, N=3, read-out: Brain Concentration/Plasma Concentration, Mean) of 0.606. It also gave a Kp at 0.333 hr (male, C57BL/6, mouse, brain/plasma, po, 20 mg/kg, PO 20 mg/kg, male C57BL/6 mice, 0.333 hr, read-out: Brain Concentration/Plasma Concentration, Individuals) of 0.561, a Kp at 0.5 hr (male, C57BL/6, mouse, brain/plasma, po, 20 mg/kg, PO 20 mg/kg, male C57BL/6 mice, 0.5 hr, N=3, read-out: Brain Concentration/Plasma Concentration, Mean) of 0.575 and a Kp at 0.5 hr (male, C57BL/6, mouse, brain/plasma, po, 20 mg/kg, PO 20 mg/kg, male C57BL/6 mice, 0.5 hr, read-out: Brain Concentration/Plasma Concentration, Individuals) of 0.525. It also gave a Kp at 0.75 hr (male, C57BL/6, mouse, brain/plasma, po, 20 mg/kg, PO 20 mg/kg, male C57BL/6 mice, 0.75 hr, N=3, read-out: Brain Concentration/Plasma Concentration, Mean) of 0.586, a Kp at 0.75 hr (male, C57BL/6, mouse, brain/plasma, po, 20 mg/kg, PO 20 mg/kg, male C57BL/6 mice, 0.75 hr, read-out: Brain Concentration/Plasma Concentration, Individuals) of 0.575 and a Kp at 1 hr (male, C57BL/6, mouse, brain/plasma, po, 20 mg/kg, PO 20 mg/kg, male C57BL/6 mice, 1 hr, N=3, read-out: Brain Concentration/Plasma Concentration, Mean) of 0.559. It also gave a Kp at 1 hr (male, C57BL/6, mouse, brain/plasma, po, 20 mg/kg, PO 20 mg/kg, male C57BL/6 mice, 1 hr, read-out: Brain Concentration/Plasma Concentration, Individuals) of 0.523, a Kp at 2 hr (male, C57BL/6, mouse, brain/plasma, po, 20 mg/kg, PO 20 mg/kg, male C57BL/6 mice, 2 hr, N=3, read-out: Brain Concentration/Plasma Concentration, Mean) of 0.468 and a Kp at 2 hr (male, C57BL/6, mouse, brain/plasma, po, 20 mg/kg, PO 20 mg/kg, male C57BL/6 mice, 2 hr, read-out: Brain Concentration/Plasma Concentration, Individuals) of 0.432. It also gave a Cmax [11] of 7210 ng/g, an MRT inf [11] of 31.6 min and a Tmax [11] of 10 min. For the same compound, the half-life [11] was 21.1 min and the “concentration in brain tissue compared with KL50 (in words)” value (oral administration to mice) was “much larger concentration in brain tissue”.
